{"source": "patent US6197774A", "about": "“Pyrimidine derivative” (Otsuka Pharmaceutical Co., Ltd., priority 1997, dated 2001)", "key": {"late asthmatic response": {"test_system": "late asthmatic response", "assay": "Model experiment of asthma in guinea pigs (inhibition of late asthmatic response)", "type": "in vivo, guinea pig", "conditions": "10 mg/Kg orally 30 minutes before antigen; 6 animals; control 112 ± 17.8", "procedure": "[Model experiment of asthma in guinea pigs. (Inhibition of late asthmatic response)]\nHartley strain female guinea pigs (SLC) having the body weight of about 350 g were used and 50 mg/Kg of cyclophosphamide (mfd. by Sigma Chemical Co.) was injected intraperitoneally. 2 Days after this pretreatment by injection, 1 mg of egg albumin (mfd. by Sigma Chemical Co.) and 100 mg of aluminum hydroxide (Wako Pure Chemical Industries Co., Ltd.) were injected intraperitoneally for sensitization. 3 Weeks after the sensitization, 10 μg of egg albumin and 100 mg of aluminum hydroxide were injected intraperitoneally for booster sensitization. 6 Weeks after the primary sensitization, asthma attach was induced by inhalation and exposure to egg albumin (4 mg/ml) by using a nebulizer (NE-U12: mfd. by Omron Corp.). The asthma reaction was determined by use of a body-plethysmography (using system developed by Uchida lecturer in internal department for respiratory organs at Tsukuba University; air-resist tube, respiratory amplifier and differential pressure transducer (mfd. by Nihon Koden); and osciloscope (mfd. by Iwasaki Tsushin)), so as to determine a […] of specific airway conductance (sGaw) under the condition without anesthesia. The sGaw value just before the administration of test comopound was measured and the value is referred to as 100. Test compound was suspended in 1% HPMC (hydroxymethylpropylcellulose mfd. by Shinetsu Chemical), and was administered orally 30 minutes before the exposure with the antigen. Then, sGaw value was measured in each points until 7 hours after the exposure with the antigen."}, "[1]": {"test_system": "formation of IL-8 in cell strain A 549", "assay": "Activity for inhibiting the formation of IL-8 in vitro (A 549 cells, ELISA)", "type": "cell-based", "conditions": "Homo sapiens, A549, control 100.0, 24 hours, read-out: Ratio of formed amount of IL-8", "procedure": "[Evaluation test of activity for inhibiting the formation of IL-8 in vitro]\nPyrimidine derivative obtained in Example 1 was used as test comppound.\n(§1) Cell strain A 549 (ATCC) derived from human alveolar epithelium cells was placed on each one of the wells on a microplate having 24-wells so as to put the cells in an amount of 3×10^5 cells/U (well). The cells were incubated for 24 hours in F-12 Nutrient Mixture culture medium (mfd. by GIBCO) to which 10% of equine serum, 100 U/ml of penicillin (mfd. by Dainippon Pharmaceutical Co., Ltd.) and 100 μg/ml of streptomycin (mfd. by Dainippon Pharmaceutical Co., Ltd.) were added.\nNext, the equine serum was removed from the culture medium, and the reference culture medium as control was prepared by adding inducers of TNF-α (mfd. by genzyme), IL-1β (mfd. by genzyme) and IFN-γ (mfd. by genzyme) to the culture medium, so as to induce the formation of IL-8.\n(§2) On the other hand, the test culture medium, containing the test compound of Example 1 was prepared similarly as in the reference culture medium, except adding the test compound (1×10^-5, 1×10^-6 and 1×10^-7 M) dissolved in dimethyl sulfoxide (DMSO) at the same time of inducers-addition.\n(§3) The concentration of IL-8 formed in the supernatant of each one of the culture media after 24-hour incubation was measured by IL-8 ELISA Kit Human (mfd. by genzyme). Further, MTT assay was conducted by the similar method as described in Text Example 2 to determine the index of toxicity for cells."}, "[2]": {"assay": "MTT assay, index of toxicity for A 549 cells", "type": "cell-based", "conditions": "human, a549 cells, control 100.0, read-out: Ratio of optical absorbance", "procedure": "Test was conducted in accordance with the method as described in J. Immunol. Methods, Vol. 94, pp. 57-68, (1986). Cell strain RAW 264.7 derived from the macrophage of mouse was incubated similarly as in the method of Test Example 1(1). After that, MTT reagent (5 mg/ml) in 1/10 amount of the culture medium was added to the cells, and incubated for 4 hours. The supernatant of culture medium was taken off, then the cells were collected by using 1% SDS solution and the optical absorbance at 570-630 nm of the SDS solution was measured.\nas §1, §2, §3"}, "[3]": {"test_system": "formation of TNF-α in cell strain RAW 264.7", "assay": "Activity for inhibiting the formation of TNF-α in vitro (RAW 264.7 cells, ELISA)", "type": "cell-based", "conditions": "Mus musculus, RAW264.7, control 100, LPS 100 ng/ml, 24 hours, read-out: Ratio of formed amount of TNF-α", "procedure": "[Evaluation test of activity for inhibiting the formation of TNF-α in vitro]\nPyrimidine derivative obtained in Example 1 was used as test compound.\nas §1, with “RAW 264.7” for “A 549”, “the macrophage of mouse” for “human alveolar epithelium cells”, “a phenol red free-RPMI-1640” for “F-12 Nutrient Mixture”, “serum (mfd. by Bio Whittaker),” for “serum,”\nNext, the equine serum was removed from the culture medium, and the reference culture medium as control was prepared by adding 2 mM of L-arginine (mfd. by Wako Pure Chemical Industries, Ltd.), 10 μM/ml of tetrahydrobiopterin (mfd. by ALEXIS) and 100 ng/ml of lipopolysaccharide (LPS)(mfd. by Sigma Chemical Co.) to a phenol red free-RPMI-1640 culture medium, so as to induce the formation of TNF-α.\nOn the other hand, the test culture medium, containing the test compound of Example 1 was prepared similarly as in the reference culture medium, except adding the test compound (1×10^-4, 1×10^-5 and 1×10^-6 M) dissolved in dimethyl sulfoxide (DMSO) at the same time of LPS-addition.\nThe concentration of TNF-α formed in the supernatant of each one of the culture media after 24 hour-incubation was measured by Factor-Test-X Mouse TNF-α ELISA Kit (mfd. by genzyme)."}}}
{"molecule": "COCc1cc(=O)n2ncc(-c3ccc(Sc4ccccc4)cc3)c2[nH]1", "note": "[Example 1, 4,7-dihydro-5-methoxymethyl-7-oxo-3-(4-phenylthiophenyl)pyrazolo[1,5-a]pyrimidine]", "values": [{"measurement": "AUC (4-7 hours) of sGaw reaction", "setting": "late asthmatic response", "result": "32.8 ± 9.2"}, {"measurement": "activity at 10 µM", "setting": "[1]; 1 × 10^-5 M", "result": 13.4, "unit": "%"}, {"measurement": "activity at 1 µM", "setting": "[1]; 1 × 10^-6 M", "result": 52.6, "unit": "%"}, {"measurement": "activity at 0.1 µM", "setting": "[1]; 1 × 10^-7 M", "result": 64.5, "unit": "%"}, {"measurement": "viability at 24 h, 10 µM", "setting": "[2]; 1 × 10^-5 M", "result": 126, "unit": "%"}, {"measurement": "viability at 24 h, 1 µM", "setting": "[2]; 1 × 10^-6 M", "result": 98.1, "unit": "%"}, {"measurement": "viability at 24 h, 0.1 µM", "setting": "[2]; 1 × 10^-7 M", "result": 108, "unit": "%"}, {"measurement": "activity at 100 µM", "setting": "[3]; 1 × 10^-4 M", "result": 5.1, "unit": "%"}, {"measurement": "activity at 10 µM", "setting": "[3]; 1 × 10^-5 M", "result": 59.9, "unit": "%"}, {"measurement": "activity at 1 µM", "setting": "[3]; 1 × 10^-6 M", "result": 120, "unit": "%"}]}
